Laboratory results taken from patent publication US20260262643A1, “HERBICIDAL BENZOXAZINES” (FMC CORPORATION, priority 2022, published 2026).

Experiments:
[1] = test system: barnyardgrass; test: Test C preemergence; type: in vivo, Echinochloa crusgalli; conditions: 0 to 100 scale (0 no effect, 100 complete control)
Method in brief: (§1)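 Seeds in loam–sand blend received preemergence directed soil spray of test chemicals in non-phytotoxic solvent with surfactant; postemergence treatment was applied at one- to two-leaf stage (2–10 cm). After 10 days in greenhouse, injury rated visually versus untreated controls, 0 (no effect) to 100 (complete control).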

[2] = test system: blackgrass; test: Test C preemergence; type: in vivo, Alopecurus myosuroides; conditions: 0 to 100 scale (0 no effect, 100 complete control)
Method in brief: as §1

[3] = test system: corn; test: Test C preemergence; type: in vivo, Zea mays; conditions: 0 to 100 scale (0 no effect, 100 complete control)
Method in brief: as §1

[4] = test system: green foxtail; test: Test C preemergence; type: in vivo, Setaria viridis; conditions: 0 to 100 scale (0 no effect, 100 complete control)
Method in brief: as §1

[5] = test system: kochia; test: Test C preemergence; type: in vivo, Bassia scoparia; conditions: 0 to 100 scale (0 no effect, 100 complete control)
Method in brief: as §1

[6] = test system: oat, wild; test: Test C preemergence; type: in vivo, Avena fatua; conditions: 0 to 100 scale (0 no effect, 100 complete control)
Method in brief: as §1

[7] = test system: pigweed, palmer; test: Test C preemergence; type: in vivo, Amaranthus palmeri; conditions: 0 to 100 scale (0 no effect, 100 complete control)
Method in brief: as §1

[8] = test system: ragweed; test: Test C preemergence; type: in vivo, Ambrosia artemisiifolia; conditions: 0 to 100 scale (0 no effect, 100 complete control)
Method in brief: as §1

[9] = test system: ryegrass, Italian; test: Test C preemergence; type: in vivo, Lolium multiflorum; conditions: 0 to 100 scale (0 no effect, 100 complete control)
Method in brief: as §1

[10] = test system: soybean; test: Test C preemergence; type: in vivo, Glycine max; conditions: 0 to 100 scale (0 no effect, 100 complete control)
Method in brief: as §1

[11] = test system: wheat; test: Test C preemergence; type: in vivo, Triticum aestivum; conditions: 0 to 100 scale (0 no effect, 100 complete control)
Method in brief: as §1

[12] = test system: barnyardgrass; test: Test C postemergence; type: in vivo, Echinochloa crusgalli; conditions: 10 days
Method in brief: as §1

[13] = test system: blackgrass; test: Test C postemergence; type: in vivo, Alopecurus myosuroides; conditions: 10 days
Method in brief: as §1

[14] = test system: corn; test: Test C postemergence; type: in vivo, Zea mays; conditions: 10 days
Method in brief: as §1

[15] = test system: green foxtail; test: Test C postemergence; type: in vivo, Setaria viridis; conditions: 10 days
Method in brief: as §1

[16] = test system: kochia; test: Test C postemergence; type: in vivo, Bassia scoparia; conditions: 10 days
Method in brief: as §1

[17] = test system: oat, wild; test: Test C postemergence; type: in vivo, Avena fatua; conditions: 10 days
Method in brief: as §1

[18] = test system: pigweed, palmer; test: Test C postemergence; type: in vivo, Amaranthus palmeri; conditions: 10 days
Method in brief: as §1

[19] = test system: ragweed; test: Test C postemergence; type: in vivo, Ambrosia artemisiifolia; conditions: 10 days
Method in brief: as §1

[20] = test system: ryegrass, Italian; test: Test C postemergence; type: in vivo, Lolium multiflorum; conditions: 10 days
Method in brief: as §1

[21] = test system: soybean; test: Test C postemergence; type: in vivo, Glycine max; conditions: 10 days
Method in brief: as §1

[22] = test system: wheat; test: Test C postemergence; type: in vivo, Triticum aestivum; conditions: 10 days
Method in brief: as §1

[23] = test system: galium; test: Test C postemergence; type: in vivo, Galium aparine; conditions: 10 days
Method in brief: as §1

[24] = test system: horseweed; test: Test C postemergence; type: in vivo, Erigeron canadensis; conditions: 10 days
Method in brief: as §1

[25] = test system: barnyardgrass; test: Test D flooded paddy test; type: in vivo, Echinochloa crus-galli; conditions: 250 g ai/ha, applied to paddy water, visual rating after 13 to 14 days, scale 0 to 100 (0 no effect, 100 complete control)
Method in brief: (§2)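 Rating scale 0–100 (0 no effect, 100 complete control), visual, versus controls. Readout at 13–14 days after in-water application to 2-leaf plants in pots flooded 3 cm deep.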

[26] = test system: ducksalad; test: Test D flooded paddy test; type: in vivo, Heteranthera limosa; conditions: 250 g ai/ha, applied to paddy water, visual rating after 13 to 14 days, scale 0 to 100 (0 no effect, 100 complete control)
Method in brief: as §2

[27] = test system: rice; test: Test D flooded paddy test; type: in vivo, Oryza sativa; conditions: 250 g ai/ha, applied to paddy water, visual rating after 13 to 14 days, scale 0 to 100 (0 no effect, 100 complete control)
Method in brief: as §2

[28] = test system: sedge, umbrella; test: Test D flooded paddy test; type: in vivo, Cyperus difformis; conditions: 250 g ai/ha, applied to paddy water, visual rating after 13 to 14 days, scale 0 to 100 (0 no effect, 100 complete control)
Method in brief: as §2

[29] = Preemergence, 500 g ai/ha, visual rating after 10 days
[30] = Test C, preemergence, 125 g ai/ha
[31] = 125 g ai/ha, postemergence, 0 to 100 scale, 0 no effect, 100 complete control
[32] = Postemergence, 500 g ai/ha, visual 0 to 100 scale (0 no effect, 100 complete control)

CCc1ncn(-c2ccc(C)c(C(=O)N3CC(C(F)(F)F)Oc4c(Cl)cccc43)c2)n1 (single isomer, unassigned) [Compound 218]
Plant response rating, Barnyardgrass [1, 29]: 100 | Barnyardgrass plant response rating [1, 30]: 100 | Plant response rating, Blackgrass [2, 29]: 80 | Blackgrass plant response rating [2, 30]: 40 | Plant response rating, Corn [3, 29]: 60 | Corn plant response rating [3, 30]: 20 | Plant response rating, Foxtail, Green [4, 29]: 100 | Foxtail, Green plant response rating [4, 30]: 100 | Plant response rating, Kochia [5, 29]: 100 | Kochia plant response rating [5, 30]: 90 | Plant response rating, Oat, Wild [6, 29]: 90 | Oat, Wild plant response rating [6, 30]: 60 | Plant response rating, Pigweed, Palmer [7, 29]: 100 | Pigweed, Palmer plant response rating [7, 30]: 100 | Plant response rating, Ragweed [8, 29]: 80 | Ragweed plant response rating [8, 30]: 20 | Plant response rating, Ryegrass, Italian [9, 29]: 90 | Ryegrass, Italian plant response rating [9, 30]: 90 | Plant response rating, Soybean [10, 29]: 100 | Soybean plant response rating [10, 30]: 90 | Plant response rating, Wheat [11, 29]: 80 | Wheat plant response rating [11, 30]: 30 | Plant response rating, Barnyardgrass [12, 31]: 100 | Plant response rating, Barnyardgrass [12, 32]: 100 | Plant response rating, Blackgrass [13, 31]: 90 | Plant response rating, Blackgrass [13, 32]: 100 | Plant response rating, Corn [14, 31]: 70 | Plant response rating, Corn [14, 32]: 70 | Plant response rating, Foxtail, Green [15, 31]: 90 | Plant response rating, Foxtail, Green [15, 32]: 90 | Plant response rating, Kochia [16, 31]: 90 | Plant response rating, Kochia [16, 32]: 100 | Plant response rating, Oat, Wild [17, 31]: 30 | Plant response rating, Oat, Wild [17, 32]: 80 | Plant response rating, Pigweed, Palmer [18, 31]: 90 | Plant response rating, Pigweed, Palmer [18, 32]: 90 | Plant response rating, Ragweed [19, 31]: 80 | Plant response rating, Ragweed [19, 32]: 80 | Plant response rating, Ryegrass, Italian [20, 31]: 80 | Plant response rating, Ryegrass, Italian [20, 32]: 90 | Plant response rating, Soybean [21, 31]: 100 | Plant response rating, Soybean [21, 32]: 100 | Plant response rating, Wheat [22, 31]: 60 | Plant response rating, Wheat [22, 32]: 90 | Plant response rating, Galium [23, 31]: 100 | Plant response rating, Galium [23, 32]: 100 | Plant response rating, Horseweed [24, 31]: 0 | Plant response rating, Horseweed [24, 32]: 70 | Plant response rating, Barnyardgrass (Flood) [25]: 0 | Plant response rating, Ducksalad (Flood) [26]: 60 | Plant response rating, Rice (Flood) [27]: 0 | Plant response rating, Sedge, Umbrella (Flood) [28]: 80
